Values of other authors in patent US6316473A, “Two surfactant-containing medicinal composition” (Fujisawa Pharmaceutical Co., Ltd., priority 1997, dated 2001).

Settings: stated as well known

For `C=CC[C@@H]1/C=C(\C)C[C@H](C)C[C@H](OC)[C@H]2O[C@@](O)(C(=O)C(=O)N3CCCC[C@H]3C(=O)O[C@H](/C(C)=C/[C@@H]3CC[C@@H](O)[C@H](OC)C3)[C@H](C)[C@@H](O)CC1=O)[C@H](C)C[C@@H]2OC` [FK506, 17-allyl-1,14-dihydroxy-12-[2-(4-hydroxy-3-methoxycyclohexyl)-1-methylvinyl]-23,25-dimethoxy-13,19,21,27-tetramethyl-11,28-dioxa-4-azatricyclo[22.3. 1.0 4,9]octacos-18-ene-2,3,10,16-tetraone], the solubility in water is listed as “only sparingly soluble in water”.
